# Molecular target: T1, Tyrosine-protein phosphatase non-receptor type 1 (Homo sapiens, UniProt P18031)
# T1 sequence (P18031 whole entry): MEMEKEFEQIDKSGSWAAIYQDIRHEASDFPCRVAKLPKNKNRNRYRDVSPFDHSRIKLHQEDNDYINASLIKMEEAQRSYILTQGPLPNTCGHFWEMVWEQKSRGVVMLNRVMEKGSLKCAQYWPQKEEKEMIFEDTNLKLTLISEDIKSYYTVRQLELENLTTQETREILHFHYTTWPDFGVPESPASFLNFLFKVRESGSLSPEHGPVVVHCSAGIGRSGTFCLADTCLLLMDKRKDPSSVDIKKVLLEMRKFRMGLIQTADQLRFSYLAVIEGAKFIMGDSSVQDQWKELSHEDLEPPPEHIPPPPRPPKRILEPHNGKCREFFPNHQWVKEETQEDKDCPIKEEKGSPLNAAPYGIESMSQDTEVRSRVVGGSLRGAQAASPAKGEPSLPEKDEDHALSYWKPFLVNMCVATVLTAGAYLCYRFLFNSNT
# Experiment: Inhibition of recombinant human PTP1B expressed in Escherichia coli using pNPP as substrate preincubated for 15 mins followed by substrate addition and measured after 60 mins
row,IC50,SMILES
1,2.81 µM,COc1cc(O)c(Cl)c(C)c1-c1cc(O)c(Cl)c2cc3c(c(O)c12)C(=O)c1c(O)c(Cl)c(O)c(Cl)c1C3(C)C
2,2.7 µM,COc1cc(O)c(Cl)c(C)c1-c1cc(O)cc2cc3c(c(O)c12)C(=O)c1c(cc(O)c(Cl)c1O)C3(C)C
3,8.27 µM,COc1cc(O)c(Cl)c(C)c1-c1cc(O)c(Cl)c2cc3c(c(O)c12)C(=O)c1c(cc(O)c(Cl)c1O)C3(C)C
4,3.38 µM,COc1cc(O)c(Cl)c(C)c1-c1cc(O)cc2cc3c(c(O)c12)C(=O)c1c(O)cc(O)cc1C3(C)C
5,7.69 µM,COc1cc(O)cc(C)c1-c1cc(O)cc2cc3c(c(O)c12)C(=O)c1c(cc(O)c(Cl)c1O)C3(C)C
6,2.62 µM,COc1cc(O)c(Cl)c(C)c1-c1cc(O)c(Br)c2cc3c(c(O)c12)C(=O)c1c(O)cc(O)cc1C3(C)C
7,2.11 µM,COc1cc(O)c(Cl)c(C)c1-c1cc(O)cc2cc3c(c(O)c12)C(=O)c1c(O)c(Cl)c(O)c(Cl)c1C3(C)C
8,0.34 µM,COc1c(Cl)c(O)c(Cl)c(C)c1-c1cc(O)c(Cl)c2cc3c(c(O)c12)C(=O)c1c(O)c(Cl)c(O)c(Cl)c1C3(C)C

# From ChEMBL document CHEMBL4616653, “Naphthacemycins from a Streptomyces sp. as Protein-Tyrosine Phosphatase Inhibitors” (J Nat Prod, 2020)
